The values below come from ChEMBL document CHEMBL3507680, “University of Dundee, Gates Library screen for HepG2 cell viability”.

Where “and” joins values, the source holds several entries; their conditions need not be identical. Identical values can stand only once.

One series in a line: Human HepG2 cell viability assay in 384 well format. To be noted: HepG2 cells, read-out: Inhibition. It counts as toxicity, cell-based. Also on record: dose 125 nL, time 70.5 hour; concentration not given beside the values.
`CN(C(=O)[C@H]1CSCN1C(=O)OC(C)(C)C)C1CC1`: the cytotoxicity at 70.5 h worked out at 73.6%.

With `CC(C)Nc1cc(-c2c[nH]nc2C2CCN(C(=O)C3CC3)C2)ccn1` (stereo unspecified), the cytotoxicity at 70.5 h stood at 96.7%.

Regarding `COC[C@H]1CCC[C@]12CN(Cc1cccc(C)n1)CCO2`, the cytotoxicity at 70.5 h stood at 63.1%.

With `Cc1cccc(C)c1Nc1noc2c1CN(C(=O)c1ccnn1C)CC2`, the cytotoxicity at 70.5 h was 69.8%.

As for `Clc1ccccc1C1(c2ccnc(C3CCCC3)n2)CCNCC1`, the cytotoxicity at 70.5 h came to 73%.

`Cc1nc(Nc2nccs2)cc(C2CCCN2)n1.Cl` (stereo unspecified): the cytotoxicity at 70.5 h was 101%.

`C=Cc1ccc(CN2C(=O)C3(CCNCC3)Nc3ccccc32)cc1`: the cytotoxicity at 70.5 h is 102%.

As for `CC(C)c1cc(NC(=O)Cn2cnc3ccccc3c2=O)[nH]n1`, the cytotoxicity at 70.5 h stood at 104%.

On to `O=C(C[C@@H]1COC[C@H]2CN(C3CCOCC3)C[C@@H]12)Nc1cnccn1`, for which the cytotoxicity at 70.5 h is 76.4%.

In the case of `CC(C)c1ccc(CN2C(=O)C3(CCNCC3)Nc3ccccc32)cc1`, the cytotoxicity at 70.5 h was 105%.

Turning to `CC(C)N(C)C(=O)c1ccc(CNc2ccncc2Cl)cc1`, the cytotoxicity at 70.5 h was 74.8%.

In the case of `CC(C)OCCN1CCC(Nc2nccnc2C#N)CC1`, the cytotoxicity at 70.5 h turned out to be 62.9%.

In the case of `Cc1cccc(CN2CCCC2c2cccc(Nc3nccs3)n2)c1` (stereo unspecified), the cytotoxicity at 70.5 h was 84.1%.

Turning to `COc1ccccc1N1CCN(C(=O)CSCC2CC2)C(C)C1` (stereo unspecified), the cytotoxicity at 70.5 h came out at 97.2%.

With `COc1nn(C)c2c1CCCN(C(=O)c1ccc3c(c1)OCO3)C2.O=C(O)C(F)(F)F`, the cytotoxicity at 70.5 h was found to be 77.9%.

For the molecule `CCCc1nc2c(c(C)c(C)n2Cc2ccccn2)c(N)c1CC`, the cytotoxicity at 70.5 h was 80.2%.

Take `CC(C)CNc1cc(-c2c[nH]nc2C2CCN(C(=O)C3CC3)C2)ccn1` (stereo unspecified): the cytotoxicity at 70.5 h turned out to be 95.1%.

In the case of `CSc1ccc(NC(=O)Nc2ccc3c(c2)N(S(C)(=O)=O)CC3)cc1`, the cytotoxicity at 70.5 h was determined as 68.5%.

Turning to `CC(C)n1ccc(C(=O)NCC(O)c2c(Cl)cccc2Cl)n1` (stereo unspecified), the cytotoxicity at 70.5 h came out at 65.8%.

In the case of `CC1(C)Cc2nc(C(C)(C)C)ncc2C(NC(=O)C2(N)CC2)C1` (stereo unspecified), the cytotoxicity at 70.5 h was 105%.

For the molecule `c1cncc(CN2CCCn3nnc(CN4CCCCC4)c3C2)c1`, the cytotoxicity at 70.5 h stood at 65.6%.

With `CCS(=O)(=O)N1CCc2ccc(NC(=O)Nc3cccc(SC)c3)cc21`, the cytotoxicity at 70.5 h worked out at 63.9%.

`COc1cc(NC(=O)C2CC(=O)N(c3cccc(Br)c3)C2)ncn1` (stereo unspecified): the cytotoxicity at 70.5 h came out at 91.5%.

With `COc1ccc(CNC(Cc2ccsc2)c2ccc(C)cn2)c(OC)c1` (stereo unspecified), the cytotoxicity at 70.5 h is 85.3%.

Regarding `Cc1cc(C)cc(C(=O)NCCCNc2ncccn2)c1`, the cytotoxicity at 70.5 h stood at 101%.

`COCc1noc(-c2ccc(N(C)Cc3ncccc3C)nc2)n1`: the cytotoxicity at 70.5 h was found to be 73.3%.

Regarding `O=C(c1cccc2cccnc12)N1CC[C@@]2(CCCO2)[C@@H](O)C1`, the cytotoxicity at 70.5 h came out at 74.5%.

Turning to `O=C(Cn1cc(-c2ccccc2)ncc1=O)Nc1nc(C2CC2)n[nH]1`, the cytotoxicity at 70.5 h was 99.8%.

With `Cc1csc([C@H]2C[C@@H]3CCN(Cc4cnn(C)c4)C[C@H]3O2)n1`, the cytotoxicity at 70.5 h was -7.09%.

Regarding `CN1CCOCC2(CCCN(C(=O)Cc3ccncc3)C2)C1` (stereo unspecified), the cytotoxicity at 70.5 h was -11.6%.

`O=C(CC1CCCO1)Nc1ccc2c(ccn2CCN2CCOCC2)c1` (stereo unspecified): the cytotoxicity at 70.5 h is -8.05%.

With `NC(=O)COc1cccc(C(=O)N2CCCC(n3cccn3)C2)c1` (stereo unspecified), the cytotoxicity at 70.5 h came out at 28.9%.

Take `CC(C)OCCC1CCCCN1S(C)(=O)=O` (stereo unspecified): the cytotoxicity at 70.5 h is -8.81%.

`O=C1NCCN1C1CCN(CC(O)c2ccccc2F)CC1` (stereo unspecified): the cytotoxicity at 70.5 h is -7.23%.

With `COc1cc(N2CCC3(CC2)C(c2ccncc2)CC(=O)N3C)ncn1` (stereo unspecified), the cytotoxicity at 70.5 h was -9.06%.

As for `COCc1nc(C(=O)NS(=O)(=O)c2ccc(F)cc2F)cs1`, the cytotoxicity at 70.5 h came to 0.492%.

With `c1cncc(CO[C@H]2CN(Cc3ccco3)[C@@H]3COC[C@H]23)c1`, the cytotoxicity at 70.5 h is -3.78%.

As for `O=C(O)c1ccn(-c2ccccc2NS(=O)(=O)c2cccc(Cl)c2F)n1`, the cytotoxicity at 70.5 h is -7.81%.

Consider `c1ccc(CCN2CCn3cc(Cn4cccn4)nc3C2)cc1`, for which the cytotoxicity at 70.5 h is -10.6%.

Regarding `CCn1nnc2c1C(COCCN(C)C)CN(Cc1ccc(C)s1)C2` (stereo unspecified), the cytotoxicity at 70.5 h amounted to 3.05%.

On to `CCOc1cc(CN(C)CCC#N)ccc1OC(F)F`, for which the cytotoxicity at 70.5 h was -5.38%.

As for `Cc1cc(C(=O)Nc2cnn(CC(F)(F)F)c2)nc(N(C)C)n1`, the cytotoxicity at 70.5 h was -1.64%.

As for `Cc1cc(C)nc(Nc2cc(C3CCCN(C)C3)nc(C)n2)n1` (stereo unspecified), the cytotoxicity at 70.5 h is -27.7%.

Turning to `COc1ccc(OC)c(C(C)NC(=O)Nc2nnc(C)s2)c1` (stereo unspecified), the cytotoxicity at 70.5 h was -5.29%.

On to `Cc1ccc(C(=O)N2CC[C@H]3[C@@H]2CCC(=O)N3c2cccnc2)o1`, for which the cytotoxicity at 70.5 h is -13.5%.

For the molecule `CCc1nc2c(c(N3CCOCC3)n1)CCN(C(=O)c1ccon1)CC2`, the cytotoxicity at 70.5 h turned out to be 6.74%.

For the molecule `O=C1COC2(CCN(Cc3cccs3)CC2)CN1c1cncnc1`, the cytotoxicity at 70.5 h was 0.999%.

The next series can be described thus: Human HepG2 cell viability dose-response assay.
Conditions: not given
It is filed as toxicity, cell-based.
In turn, `CN(C(=O)[C@H]1CSCN1C(=O)OC(C)(C)C)C1CC1` returned a BOTTOM of 0, an HILLSLOPE of 0, a TOP of 0 and a pXC50 of under 4.53.

Take `CC(C)Nc1cc(-c2c[nH]nc2C2CCN(C(=O)C3CC3)C2)ccn1` (stereo unspecified): the HILLSLOPE was 3.535 and 2.719; the TOP is 97.3 and 97.69; the pXC50 is 6.519 and 6.486.

For `COC[C@H]1CCC[C@]12CN(Cc1cccc(C)n1)CCO2`, the BOTTOM is given as 0, the HILLSLOPE was found to be 0, the TOP is on record as 0 and the pXC50 was under 4.53.

For `Cc1cccc(C)c1Nc1noc2c1CN(C(=O)c1ccnn1C)CC2`, the BOTTOM is -5.714 and -2.53; the HILLSLOPE was 1.878 and 1.75; the TOP was determined as 100; the pXC50 is 4.825 and 4.807.

For `Clc1ccccc1C1(c2ccnc(C3CCCC3)n2)CCNCC1`, the BOTTOM is 17.52 and 27.16; the HILLSLOPE is 2.801 and 2.528; the TOP was 108.2 and 108.3; the pXC50 was 5.086 and 5.104.

`Cc1nc(Nc2nccs2)cc(C2CCCN2)n1.Cl` (stereo unspecified): the BOTTOM was 11.4 and 11.68; the HILLSLOPE is 4.445 and 3.614; the TOP is 100.1 and 100.5; the pXC50 is 5.52 and 5.57.

Consider `C=Cc1ccc(CN2C(=O)C3(CCNCC3)Nc3ccccc32)cc1`, for which the BOTTOM is -4.877 and -3.437; the HILLSLOPE is 10.74 and 12.71; the TOP worked out at 102; the pXC50 is 5.033 and 5.016.

On to `CC(C)c1cc(NC(=O)Cn2cnc3ccccc3c2=O)[nH]n1`, for which the BOTTOM was -4.443 and -6.453; the HILLSLOPE was 2.259 and 2.3; the TOP is 101.3 and 101.4; the pXC50 was 5.61 and 5.595.

With `O=C(C[C@@H]1COC[C@H]2CN(C3CCOCC3)C[C@@H]12)Nc1cnccn1`, the BOTTOM came to 0, the HILLSLOPE was found to be 0, the TOP is 0 and the pXC50 is reported as under 4.53.

For `CC(C)c1ccc(CN2C(=O)C3(CCNCC3)Nc3ccccc32)cc1`, the BOTTOM was -7.959 and -9.531; the HILLSLOPE was 9.317 and 9.377; the TOP is 102.3 and 101.9; the pXC50 is 4.989 and 5.005.

For `CC(C)N(C)C(=O)c1ccc(CNc2ccncc2Cl)cc1`, the BOTTOM is reported as 0, the HILLSLOPE is on record as 0, the TOP amounted to 0 and the pXC50 is under 4.53.

Turning to `CC(C)OCCN1CCC(Nc2nccnc2C#N)CC1`, the BOTTOM is -6.463 and -12.72; the HILLSLOPE was 1.108 and 0.9682; the TOP came to 100; the pXC50 is 5.071 and 5.086.

For the molecule `Cc1cccc(CN2CCCC2c2cccc(Nc3nccs3)n2)c1` (stereo unspecified), the HILLSLOPE was 2.773 and 1.557; the TOP was 82.62 and 100; the pXC50 is 6.512 and 6.485.

In turn, `COc1ccccc1N1CCN(C(=O)CSCC2CC2)C(C)C1` (stereo unspecified) showed a BOTTOM of 0, an HILLSLOPE of 0, a TOP of 0 and a pXC50 of under 4.53.

`COc1nn(C)c2c1CCCN(C(=O)c1ccc3c(c1)OCO3)C2.O=C(O)C(F)(F)F` came in with a BOTTOM of 0, an HILLSLOPE of 0, a TOP of 0 and a pXC50 of under 4.53.

Take `CCCc1nc2c(c(C)c(C)n2Cc2ccccn2)c(N)c1CC`: the BOTTOM is 13.8 and 17.26; the HILLSLOPE is 1.43 and 1.529; the TOP is on record as 100; the pXC50 was 5.166 and 5.178.

Take `CC(C)CNc1cc(-c2c[nH]nc2C2CCN(C(=O)C3CC3)C2)ccn1` (stereo unspecified): the BOTTOM was -0.825 and -1.513; the HILLSLOPE is 7.855 and 3.586; the TOP was 97.39 and 97.86; the pXC50 is 6.385 and 6.436.

For `CSc1ccc(NC(=O)Nc2ccc3c(c2)N(S(C)(=O)=O)CC3)cc1`, the BOTTOM is -10.17 and -8.332; the HILLSLOPE was 0.8924 and 0.8709; the TOP is reported as 100; the pXC50 was 4.975 and 4.922.

Consider `CC(C)n1ccc(C(=O)NCC(O)c2c(Cl)cccc2Cl)n1` (stereo unspecified), for which the BOTTOM is recorded as 0, the HILLSLOPE is 0, the TOP is on record as 0 and the pXC50 is under 4.53.

As to `CC1(C)Cc2nc(C(C)(C)C)ncc2C(NC(=O)C2(N)CC2)C1` (stereo unspecified), the BOTTOM came to 0, the HILLSLOPE stood at 0, the TOP turned out to be 0 and the pXC50 is on record as under 4.53.

The molecule `c1cncc(CN2CCCn3nnc(CN4CCCCC4)c3C2)c1` returned a BOTTOM of 0, an HILLSLOPE of 0, a TOP of 0 and a pXC50 of under 4.53.

Take `CCS(=O)(=O)N1CCc2ccc(NC(=O)Nc3cccc(SC)c3)cc21`: the BOTTOM was -6.506 and -6.611; the HILLSLOPE was 1.266 and 1.157; the TOP came out at 100; the pXC50 was 5.029 and 4.966.

For the molecule `COc1cc(NC(=O)C2CC(=O)N(c3cccc(Br)c3)C2)ncn1` (stereo unspecified), the BOTTOM was 13.61 and 20.88; the HILLSLOPE was 5.533 and 3.735; the TOP is 100.7 and 101.2; the pXC50 was 5.491 and 5.506.

In the case of `COc1ccc(CNC(Cc2ccsc2)c2ccc(C)cn2)c(OC)c1` (stereo unspecified), the HILLSLOPE was 2.726 and 2.464; the TOP was 91.22 and 91.65; the pXC50 is 5.292 and 5.344.

For the molecule `Cc1cc(C)cc(C(=O)NCCCNc2ncccn2)c1`, the BOTTOM is -7.868 and -9.506; the HILLSLOPE is 17.28 and 6.436; the TOP was 100.1 and 99.9; the pXC50 is reported as 5.413.

As for `COCc1noc(-c2ccc(N(C)Cc3ncccc3C)nc2)n1`, the BOTTOM was -13.69 and -12.76; the HILLSLOPE is 1.85 and 1.799; the TOP came out at 100; the pXC50 is reported as 5.092.

As for `O=C(c1cccc2cccnc12)N1CC[C@@]2(CCCO2)[C@@H](O)C1`, the BOTTOM is -1.598 and -1.635; the HILLSLOPE was 1.904 and 1.967; the TOP amounted to 100; the pXC50 is 4.773 and 4.744.

On to `O=C(Cn1cc(-c2ccccc2)ncc1=O)Nc1nc(C2CC2)n[nH]1`, for which the BOTTOM was -8.692 and -5.853; the HILLSLOPE was 2.68 and 2.241; the TOP is 101 and 102.4; the pXC50 was 5.614 and 5.594.
